Values of other authors as cited in patent US20110201579A1, “Method of Improving the Overall Health of a Patient by Application of Pregnenolone” (priority 2010, published 2011).

Assays:
[1] = individuals with rheumatoid arthritis
[2] = rodents
[3] = some people

Row | SMILES | improvement of rheumatoid arthritis [1] | memory [2] | energy, vision, memory, clarity of thinking, wellbeing, sexual enjoyment or libido [3]
1 | C[C@]12CCC(=O)C=C1CC[C@@H]1[C@@H]2[C@@H](O)C[C@@]2(C)[C@H]1CC[C@]2(O)C(=O)CO [cortisol] | outstanding short-term improvements |  | 
2 | CC(=O)[C@H]1CC[C@H]2[C@@H]3CC=C4C[C@@H](O)CC[C@]4(C)[C@H]3CC[C@]12C [pregnenolone, Pregnenolone] |  | one of the most effective and powerful memory boosters | improves energy, vision, memory, clarity of thinking, wellbeing, and often sexual enjoyment or libido
